# Where two headings read alike, the source gives them in different places.
# Legend:
# [1] = tested on: 4T1 breast cancer cell line; assay: Alamar Blue cell viability, 4T1; type: cell-based; conditions: 4T1, 24 h incubation
# Description: 4T1 breast cancer cell line was cultured in RPMI-1640 (Gibco Invitrogen) with 10 % fetal bovine serum (FBS, the bovine serum albumin is a major component), 1 % penicillin and streptomycin and 0.2 % fungizone. Cells were routinely cultured at 37 °C in a humidified incubator in 5 % CO2 atmosphere. Cell viability was measured using Alamar Blue assay. Cells were seeded on 96-well plate with density of 10^4 cells per cm^2 and cultured for 24 h in medium with or without 2 % serum. Then cells were incubated with various concentrations of ruthenium compounds for 24 h in the dark. All used ruthenium complexes were freshly diluted in DMSO and then added to the appropriate medium to obtain the applied concentrations. The final DMSO concentration was kept constant at 0.05 % (v/v). Next cells were washed with PBS and incubated in AlamarBlue solution (21 times diluted in PBS) for 3 h. Alamar Blue test is based on the reduction of blue and non-fluorescent subtract (resazurin) to a pink and highly fluorescent product (resorufin) by the alive cells. Extract mechanism of the reduction is still unknown, but it is postulated that reduction occurs by mitochondrial or cytoplasmic enzymes, such as NADH dehydrogenase or diaphorase. It is still not known whether this process occurs intracellularly, at the plasma membrane surface or just in the medium as a chemical reaction. The cell viability was quantified at 605 nm using 560 nm excitation light (VICTOR 3V multilabel plate readers, PerkinElmer). Experiments were performed in triplicates and each experiment was performed at least three times to get the mean values ± standard deviation. The viability was calculated with regard to the untreated cells control. The IC50 values were determined using Hill equation (Origin 9.0): y=y0+y100-y0c^H/IC50^H+c^H
# [2] = tested on: FVB mouse lung microvascular endothelial cells (MLuMEC FVB); assay: Alamar Blue cell viability, MLuMEC; type: cell-based; conditions: 24 h
# Description: (§1) FVB mouse lung microvascular endothelial cells (MLuMEC FVB) and murine endothelial cells isolated from aorta-gonad-mesonephros (AGM) region of 10.5 dpc embryos (MAgEC 10.5) were cultured in OptiMEM with Glutamax-I (Gibco Invitrogen) supplemented with 2% fetal bovine serum (FBS), 0.4% gentamycin and 0.2% fungizone. […]
# (§2) 10% FBS, 1% peniciline and streptomycin and 0.2% fungizone. Cells were routinely cultured at 37 °C in a humidified incubator in 5% CO2 atmosphere.
# (§3) Cell viability was measured using Alamar Blue assay. Cells were seeded on 96 wells plate with density of 1 × 10^4 cells per cm2 and cultured for 1 day. Then cells were incubated with various concentrations of compounds in medium with or without 2% FBS for 24 and 48 h under normoxic and hypoxic conditions in the darkness. Next cells were washed with PBS and incubated in Alamar Blue solution for 3 h. The cell viability was quantified at 605 nm using 560 nm excitation light (VICTOR 3V multilabel plate reader PerkinElmer or Tecan Infinite200 Reader). Experiments were performed in triplicates and each experiment was performed at least three times to get the mean values ± standard derivation. The viability was calculated with regard to the untreated cells control. The IC50 values were determined using Hill equation (Origin 9.0). […]
# [3] = tested on: murine endothelial cells isolated from aorta-gonad-mesonephros (AGM) region of 10.5 dpc embryos (MAgEC 10.5); assay: Alamar Blue cell viability, MAgEC 10.5; type: cell-based; conditions: MAgEC 10.5, 24 h
# Description: as §1, §2, §3
# [4] = tested on: Human lung adenocarcinoma epithelial cell line (A549); assay: Alamar Blue cell viability, A549; type: cell-based; conditions: A549, 24 h
# Description: as §2, §3
# [5] = aqueous solution, cited from earlier work
smiles,measurement,setting,value
"N.N.[Cl][Pt][Cl] [Cisplatin, reference compound]",IC50,[1]; medium with serum (2 %),59.8 ± 8.32 µM
same,IC50,[1]; medium without serum,73 ± 14.9 µM
same,IC50,[2]; with serum (2%),14.5 ± 1.4 µM
same,IC50,[2]; without serum,24.6 ± 2.89 µM
same,IC50,[3]; with serum (2%),8.75 ± 0.2 µM
same,IC50,[3]; without serum,9.38 ± 0.67 µM
same,IC50,[4]; with serum (2%),71.3 ± 22.9 µM
same,IC50,[4]; without serum,126 ± 30.5 µM
"[Ru+2].c1ccc(-c2ccccn2)nc1.c1ccc(-c2ccccn2)nc1.c1ccc(-c2ccccn2)nc1 [[Ru(bpy)3]^2+, reference compound]","Φ, quantum yield of luminescence (standard)","[5]; air-equilibrium conditions, ref [14]",0.028
same,"Φ, quantum yield of luminescence (standard)","[5]; deoxygenated conditions, ref [20]",0.042
